One series deals with T1, ABCD3 (Homo sapiens, UniProt P28288).
T1 construct: profiled in 60 diverse cancer cell lines (the NCI-60) using real-time RT-PCR; endogenous in cells; host or cells: NCI-60 human cancer cell lines
As to the kind of experiment: Correlation of ABCD3 expression with drug sensitivity across the NCI-60. The class given is cell-based. The conditions noted are these: Pearson correlation of ABCD3 expression with sensitivity of the 60 cell lines; 1429 compounds; inverse, p < 0.0001.

Another series has as its target T2, ABCB2 (Homo sapiens, UniProt Q03518).
T2 construct: profiled in 60 diverse cancer cell lines (the NCI-60) using real-time RT-PCR; endogenous in cells; host or cells: NCI-60 human cancer cell lines
As to the kind of experiment: Correlation of ABCB2 expression with drug sensitivity across the NCI-60. The format is cell-based. The settings on record: Pearson correlation of ABCB2 expression with sensitivity of the 60 cell lines; 1429 compounds; inverse, p < 0.0001.

Another series deals with ABCB1 (Homo sapiens, UniProt P08183). As to the kind of experiment: Correlation of ABCB1 expression with drug sensitivity across the NCI-60. Summed up:
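SYBR Green real-time RT-PCR on 150 ng total RNA with 250 nM primers: RT 20 min at 50 °C, then 45 cycles; expression taken as crossing-point cycle number. Correlated with drug sensitivity of 1429 compounds across the cell panel; permutation p-values with step-down and step-up (FDR q-value) multiple-testing correction.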

The next series addresses T3, ABCD4 (Homo sapiens, UniProt O14678).
T3 construct: profiled in 60 diverse cancer cell lines (the NCI-60) using real-time RT-PCR; endogenous in cells; host or cells: NCI-60 human cancer cell lines
As to the kind of experiment: Correlation of ABCD4 expression with drug sensitivity across the NCI-60. The format is cell-based. The settings on record: Pearson correlation of ABCD4 expression with sensitivity of the 60 cell lines; 1429 compounds; inverse, p < 0.0001.

The target in a further series is T4, ABCD1 (Homo sapiens, UniProt P33897).
T4 construct: profiled in 60 diverse cancer cell lines (the NCI-60) using real-time RT-PCR; endogenous in cells; host or cells: NCI-60 human cancer cell lines
As to the kind of experiment: Correlation of ABCD1 expression with drug sensitivity across the NCI-60. The format is cell-based. The conditions noted are these: Pearson correlation of ABCD1 expression with sensitivity of the 60 cell lines; 1429 compounds; inverse, p < 0.0001.

Another series addresses T5, ABCF1 (Homo sapiens, UniProt Q8NE71).
T5 construct: endogenous in cells; host or cells: NCI-60 human cancer cell lines
As to the kind of experiment: Correlation of ABCF1 expression with drug sensitivity across the NCI-60. The conditions noted are these: Pearson correlation of ABCF1 expression with sensitivity of the 60 cell lines; 1429 compounds; inverse, p < 0.0001. The format is cell-based.

The target of the next series is T6, ABCG8 (Homo sapiens, UniProt Q9H221).
T6 construct: endogenous in cells; host or cells: NCI-60 human cancer cell lines
The experiment in a line: Correlation of ABCG8 expression with drug sensitivity across the NCI-60. The settings on record: Pearson correlation of ABCG8 expression with sensitivity of the 60 cell lines; 1429 compounds; inverse, p < 0.0001. The class given is cell-based.

The target of another series is T7, ABCC4 (Homo sapiens, UniProt O15439).
T7 construct: profiled in 60 diverse cancer cell lines (the NCI-60) using real-time RT-PCR; endogenous in cells; host or cells: NCI-60 human cancer cell lines
T7 sequence (O15439 whole entry): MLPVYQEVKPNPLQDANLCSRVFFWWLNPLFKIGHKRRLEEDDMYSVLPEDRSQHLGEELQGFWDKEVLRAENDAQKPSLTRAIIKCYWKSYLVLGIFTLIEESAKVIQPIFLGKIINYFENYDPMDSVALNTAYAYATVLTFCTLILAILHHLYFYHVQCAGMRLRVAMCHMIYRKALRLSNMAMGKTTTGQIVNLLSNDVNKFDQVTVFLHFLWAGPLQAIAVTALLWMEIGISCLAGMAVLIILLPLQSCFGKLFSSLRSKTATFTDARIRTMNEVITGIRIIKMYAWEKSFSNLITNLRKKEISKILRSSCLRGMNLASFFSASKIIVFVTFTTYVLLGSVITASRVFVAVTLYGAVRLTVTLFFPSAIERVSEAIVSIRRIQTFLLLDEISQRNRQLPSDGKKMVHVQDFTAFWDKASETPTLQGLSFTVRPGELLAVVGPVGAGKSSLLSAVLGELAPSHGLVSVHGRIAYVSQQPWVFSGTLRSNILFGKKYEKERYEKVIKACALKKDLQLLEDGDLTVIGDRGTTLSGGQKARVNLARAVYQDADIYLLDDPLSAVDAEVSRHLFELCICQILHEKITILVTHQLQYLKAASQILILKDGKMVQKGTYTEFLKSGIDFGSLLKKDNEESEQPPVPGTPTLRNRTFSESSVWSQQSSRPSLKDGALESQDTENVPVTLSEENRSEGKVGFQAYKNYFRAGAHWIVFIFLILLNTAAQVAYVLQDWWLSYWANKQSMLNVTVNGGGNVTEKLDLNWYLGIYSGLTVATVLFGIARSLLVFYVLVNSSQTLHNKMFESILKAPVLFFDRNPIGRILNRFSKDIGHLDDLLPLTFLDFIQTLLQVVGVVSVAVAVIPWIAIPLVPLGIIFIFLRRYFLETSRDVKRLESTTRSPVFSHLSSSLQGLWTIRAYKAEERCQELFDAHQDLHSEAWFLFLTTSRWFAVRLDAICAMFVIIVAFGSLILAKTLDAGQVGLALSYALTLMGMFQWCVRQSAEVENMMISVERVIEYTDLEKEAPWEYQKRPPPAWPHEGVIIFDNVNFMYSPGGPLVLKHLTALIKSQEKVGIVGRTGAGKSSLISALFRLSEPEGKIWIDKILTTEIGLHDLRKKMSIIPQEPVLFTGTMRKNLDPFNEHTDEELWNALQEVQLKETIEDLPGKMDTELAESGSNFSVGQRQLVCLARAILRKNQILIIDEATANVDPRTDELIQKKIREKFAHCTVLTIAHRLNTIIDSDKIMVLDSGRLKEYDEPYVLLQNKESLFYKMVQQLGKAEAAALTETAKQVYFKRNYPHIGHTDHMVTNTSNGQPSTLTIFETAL
The experiment in a line: Correlation of ABCC4 expression with drug sensitivity across the NCI-60. The format is cell-based. The settings on record: Pearson correlation of ABCC4 expression with sensitivity of the 60 cell lines; 1429 compounds; inverse, p < 0.0001.

Another series deals with T8, ABCB3 (Homo sapiens, UniProt Q03519).
T8 construct: profiled in 60 diverse cancer cell lines (the NCI-60) using real-time RT-PCR; endogenous in cells; host or cells: NCI-60 human cancer cell lines
T8 sequence (Q03519 whole entry): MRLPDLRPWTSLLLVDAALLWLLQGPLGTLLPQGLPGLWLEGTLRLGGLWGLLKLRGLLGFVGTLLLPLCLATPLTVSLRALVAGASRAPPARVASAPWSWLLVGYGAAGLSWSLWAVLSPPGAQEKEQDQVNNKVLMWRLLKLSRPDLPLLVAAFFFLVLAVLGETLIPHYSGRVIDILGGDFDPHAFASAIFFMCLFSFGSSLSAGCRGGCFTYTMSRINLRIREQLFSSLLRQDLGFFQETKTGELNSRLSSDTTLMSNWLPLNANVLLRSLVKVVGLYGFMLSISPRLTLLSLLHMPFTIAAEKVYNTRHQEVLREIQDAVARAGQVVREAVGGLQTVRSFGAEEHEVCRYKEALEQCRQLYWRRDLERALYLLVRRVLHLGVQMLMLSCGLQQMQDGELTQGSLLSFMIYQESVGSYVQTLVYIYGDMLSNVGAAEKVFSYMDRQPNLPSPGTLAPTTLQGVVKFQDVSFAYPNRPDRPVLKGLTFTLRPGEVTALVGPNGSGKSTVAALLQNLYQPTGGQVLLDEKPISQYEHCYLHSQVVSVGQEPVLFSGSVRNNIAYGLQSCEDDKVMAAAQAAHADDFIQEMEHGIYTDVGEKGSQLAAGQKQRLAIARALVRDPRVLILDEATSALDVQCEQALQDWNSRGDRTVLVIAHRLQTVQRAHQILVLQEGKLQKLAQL
T8 sequence (Q03518 whole entry partner): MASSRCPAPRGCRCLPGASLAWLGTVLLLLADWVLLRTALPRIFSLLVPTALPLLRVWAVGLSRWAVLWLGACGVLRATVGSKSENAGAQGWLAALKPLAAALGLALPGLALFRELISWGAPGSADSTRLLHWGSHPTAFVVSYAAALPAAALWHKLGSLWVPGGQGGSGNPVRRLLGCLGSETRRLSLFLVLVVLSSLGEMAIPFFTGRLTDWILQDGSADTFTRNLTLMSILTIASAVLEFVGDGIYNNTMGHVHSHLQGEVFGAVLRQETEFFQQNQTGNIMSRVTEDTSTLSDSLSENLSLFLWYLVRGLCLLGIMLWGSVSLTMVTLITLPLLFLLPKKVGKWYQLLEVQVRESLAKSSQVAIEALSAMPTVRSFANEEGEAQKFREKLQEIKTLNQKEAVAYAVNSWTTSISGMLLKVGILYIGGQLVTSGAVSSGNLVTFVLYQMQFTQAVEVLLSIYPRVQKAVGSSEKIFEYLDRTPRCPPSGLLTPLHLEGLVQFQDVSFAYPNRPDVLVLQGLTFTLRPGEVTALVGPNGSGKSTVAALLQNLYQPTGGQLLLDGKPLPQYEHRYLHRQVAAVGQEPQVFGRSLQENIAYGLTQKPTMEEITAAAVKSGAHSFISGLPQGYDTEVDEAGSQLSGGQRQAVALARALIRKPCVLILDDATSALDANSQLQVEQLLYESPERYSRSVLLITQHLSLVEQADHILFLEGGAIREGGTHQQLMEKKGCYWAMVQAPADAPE
As to the kind of experiment: Correlation of ABCB3 expression with drug sensitivity across the NCI-60. The format is cell-based. The settings on record: Pearson correlation of ABCB3 expression with sensitivity of the 60 cell lines; 1429 compounds; inverse, p < 0.0001.

A further series deals with T9, ABCA2 (Homo sapiens, UniProt Q9BZC7).
T9 construct: profiled in 60 diverse cancer cell lines (the NCI-60) using real-time RT-PCR; endogenous in cells; host or cells: NCI-60 human cancer cell lines
The experiment in a line: Correlation of ABCA2 expression with drug sensitivity across the NCI-60. The format is cell-based. The conditions noted are these: Pearson correlation of ABCA2 expression with sensitivity of the 60 cell lines; 1429 compounds; inverse, p < 0.0001.

The values below come from patent publication US20080214606A1, “Methods for the Identification and Use of Compounds Suitable for the Treatment of Drug Resistant Cancer Cells” (The Government of the United States of America as …, priority 2004, published 2008).

The structures appear in SMILES notation.

ABCB1, sequence (P08183 whole entry): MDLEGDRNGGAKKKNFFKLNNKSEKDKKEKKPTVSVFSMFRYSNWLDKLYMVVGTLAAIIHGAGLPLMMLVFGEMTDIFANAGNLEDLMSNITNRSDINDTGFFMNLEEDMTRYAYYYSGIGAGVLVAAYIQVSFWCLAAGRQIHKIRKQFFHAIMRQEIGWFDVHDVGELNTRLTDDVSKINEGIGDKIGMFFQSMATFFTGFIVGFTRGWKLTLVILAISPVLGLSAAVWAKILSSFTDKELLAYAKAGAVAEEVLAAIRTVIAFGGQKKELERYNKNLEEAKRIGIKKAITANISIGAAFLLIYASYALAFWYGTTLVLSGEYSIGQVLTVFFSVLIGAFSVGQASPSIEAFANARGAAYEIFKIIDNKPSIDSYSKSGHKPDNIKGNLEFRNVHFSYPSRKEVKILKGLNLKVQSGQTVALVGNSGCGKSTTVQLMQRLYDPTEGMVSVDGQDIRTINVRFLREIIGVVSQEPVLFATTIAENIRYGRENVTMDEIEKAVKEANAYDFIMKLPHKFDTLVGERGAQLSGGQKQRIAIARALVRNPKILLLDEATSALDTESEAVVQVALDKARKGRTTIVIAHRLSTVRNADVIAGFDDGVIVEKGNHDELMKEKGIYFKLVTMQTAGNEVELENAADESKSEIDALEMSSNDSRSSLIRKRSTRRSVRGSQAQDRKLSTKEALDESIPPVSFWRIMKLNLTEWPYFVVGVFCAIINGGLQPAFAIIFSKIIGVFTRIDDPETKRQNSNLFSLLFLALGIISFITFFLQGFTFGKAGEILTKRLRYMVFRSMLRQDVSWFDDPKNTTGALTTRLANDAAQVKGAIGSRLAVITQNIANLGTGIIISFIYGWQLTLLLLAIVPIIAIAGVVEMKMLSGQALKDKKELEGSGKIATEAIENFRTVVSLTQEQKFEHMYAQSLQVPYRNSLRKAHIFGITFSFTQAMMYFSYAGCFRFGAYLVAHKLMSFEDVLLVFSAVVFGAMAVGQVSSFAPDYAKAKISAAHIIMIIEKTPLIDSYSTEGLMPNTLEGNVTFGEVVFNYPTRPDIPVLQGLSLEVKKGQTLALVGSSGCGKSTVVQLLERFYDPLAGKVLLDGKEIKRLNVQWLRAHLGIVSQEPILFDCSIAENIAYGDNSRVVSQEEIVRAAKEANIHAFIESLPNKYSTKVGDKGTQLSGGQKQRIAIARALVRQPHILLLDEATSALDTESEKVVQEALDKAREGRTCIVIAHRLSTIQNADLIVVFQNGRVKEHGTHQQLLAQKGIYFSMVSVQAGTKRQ
T5 sequence (Q8NE71 whole entry): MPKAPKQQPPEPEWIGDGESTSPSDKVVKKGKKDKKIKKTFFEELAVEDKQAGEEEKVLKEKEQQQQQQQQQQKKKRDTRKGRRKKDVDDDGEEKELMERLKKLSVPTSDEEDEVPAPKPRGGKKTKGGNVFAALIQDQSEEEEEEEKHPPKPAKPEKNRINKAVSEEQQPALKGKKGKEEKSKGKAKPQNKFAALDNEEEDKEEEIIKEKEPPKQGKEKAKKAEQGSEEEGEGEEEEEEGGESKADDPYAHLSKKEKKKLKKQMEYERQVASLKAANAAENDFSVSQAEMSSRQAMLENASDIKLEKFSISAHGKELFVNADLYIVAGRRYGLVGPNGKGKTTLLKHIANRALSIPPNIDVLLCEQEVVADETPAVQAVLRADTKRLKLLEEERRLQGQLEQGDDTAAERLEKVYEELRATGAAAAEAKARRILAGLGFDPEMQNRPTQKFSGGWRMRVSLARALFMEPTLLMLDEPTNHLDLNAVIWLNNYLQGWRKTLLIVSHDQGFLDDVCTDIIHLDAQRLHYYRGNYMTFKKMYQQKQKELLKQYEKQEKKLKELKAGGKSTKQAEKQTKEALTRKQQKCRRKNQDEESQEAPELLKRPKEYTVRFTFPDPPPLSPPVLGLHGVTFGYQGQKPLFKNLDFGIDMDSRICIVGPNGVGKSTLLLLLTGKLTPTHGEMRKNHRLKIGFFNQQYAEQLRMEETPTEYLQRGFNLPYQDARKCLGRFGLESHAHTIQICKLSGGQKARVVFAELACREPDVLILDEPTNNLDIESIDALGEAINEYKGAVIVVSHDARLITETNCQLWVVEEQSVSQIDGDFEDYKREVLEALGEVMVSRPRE
T2 sequence (Q03518 whole entry): as the sequence (Q03518 whole entry partner) above
T2 sequence (Q03519 whole entry partner): as the sequence (Q03519 whole entry) above
Procedure for ABCA2: (§1) Expression levels are measured by real-time quantitative RT-PCR using the LightCycler RNA Amplification SYBR Green kit and a LightCycler machine (Roche Biochemicals, Indianapolis, Ind.). […] When possible, the amplicons are designed to encompass exon-intron boundaries to avoid amplification of genomic DNA. Since the Syber Green assay detects accumulation of double stranded DNA, primers are selected (from a battery consisting of about 200 primers) that amplified a single product of the correct size.
(§2) RT-PCR is carried out on 150 ng total RNA, in the presence of 250 nM specific primers. […]
(§3) During PCR amplification, fluorescence emission is measured and recorded in real time by the LightCycler. Crossing point values are calculated, using the LightCycler software package, by the Fit Points analysis method, with baseline fluorescence set at 1. The SyberGreen assay measures accumulation of double-stranded products, and the appearance of primer dimers limits quantitation at high cycle numbers. […] The raw results are expressed as number of cycles to reach the crossing point. If the desired product is not detected, the corresponding value is adjusted to crossing points indicating no expression. To assess the contribution of experimental artifacts, selected cell lines are assessed in replicate. […]
Procedure for ABCB2: (§4) Expression levels are measured by real-time quantitative RT-PCR using the LightCycler RNA Amplification SYBR Green kit and a LightCycler machine (Roche Biochemicals, Indianapolis, Ind.). Specific oligonucleotide probes are designed for each of the ABC transporters using DNAStar Primer Select (DNASTAR Inc.), and they may be synthesized at Lofstrand Laboratories (Gaithersburg, Md.). When possible, the amplicons are designed to encompass exon-intron boundaries to avoid amplification of genomic DNA. Since the Syber Green assay detects accumulation of double stranded DNA, primers are selected (from a battery consisting of about 200 primers) that amplified a single product of the correct size. […]
as §3
Procedure for ABCB3: as §1, §2
During PCR amplification, fluorescence emission is measured and recorded in real time by the LightCycler. Crossing point values are calculated, using the LightCycler software package, by the Fit Points analysis method, with baseline fluorescence set at 1. The SyberGreen assay measures accumulation of double-stranded products, and the appearance of primer dimers limits quantitation at high cycle numbers. […] The raw results are expressed as number of cycles to reach the crossing point. If the desired product is not detected, the corresponding value is adjusted to crossing points indicating no expression. To assess the contribution of experimental artifacts, selected cell lines are assessed in replicate.
Procedure for ABCC4: as §1, §2, §3
Procedure for ABCD1: as §1
RT-PCR is carried out on 150 ng total RNA, in the presence of 250 nM specific primers. Following reverse transcription (20 min at 50° C.), the PCR reaction consists of 45 cycles of denaturation (15 sec at 95° C.), annealing (30 sec at 58° C.), and elongation (30 sec at 72° C.). No-template (water) reaction mixtures are prepared as negative controls.
During PCR amplification, fluorescence emission is measured and recorded in real time by the LightCycler. Crossing point values are calculated, using the LightCycler software package, by the Fit Points analysis method, with baseline fluorescence set at 1. The SyberGreen assay measures accumulation of double-stranded products, and the appearance of primer dimers limits quantitation at high cycle numbers. The specificity of amplified products is verified by melting-curve analysis and agarose gel electrophoresis (not shown). The raw results are expressed as number of cycles to reach the crossing point. If the desired product is not detected, the corresponding value is adjusted to crossing points indicating no expression. To assess the contribution of experimental artifacts, selected cell lines are assessed in replicate.
The two are combined to form a joint dataset that includes 1429 compounds.
To determine quantitatively how well the 47 genes cluster the cell lines by their tissues of origin, a statistical method is employed wherein the kappa statistic is used to indicate how well the observed clusters correspond to the nine tissue-of-origin classifications. […] To control the overall false type 1 error rate, both a step-down procedure (Westfall and Young, 1993, Resampling-Based Multiple Testing: Examples and Methods for p-value Adjustment (New York: Wiley)) and a step-up procedure (Reiner et al., 2003, Bioinformatics 19:368-375) were employed to adjust for multiple testing of all 47 genes simultaneously. In the Benjamini-Hochberg procedure the p-values are computed in the standard way by permutation, assuming that all distributions are exchangeable: the number of values in the permuted data with correlations over a threshold, divided by the number of compounds and by the number of permutations. In this analysis, the False Discovery Rate (q-value) at which each compound would be declared was calculated using the step-up procedure for positively correlated test statistics (again true because all correlations being compared are computed against the same ABC gene): in this procedure the first q-value for the largest correlation is the Bonferroni-corrected p-value for that gene; then further q-values are calculated as qj=max(pj*1429/j, qj-1). This procedure limits the expected proportion of false positives in the list 1, . . . , j to at most qj.
Procedure for ABCD3: as §4, §3
Procedure for ABCD4: as §4, §3
Procedure for ABCF1: as §4, §3
Procedure for ABCG8: as §4, §3

At ABCD3, `O=c1[nH]cc(F)c(=O)[nH]1` [NSC 19893] came in with a Correlation of −0.4232.
Consider `CC(C)C1=CC2=CC[C@@H]3[C@](C)(CCC[C@@]3(C)C(=O)O)[C@H]2CC1` [NSC 25149], for which, on ABCB2, the Correlation is reported as −0.3794.
`CC(=O)OC(C)(C)/C=C/C(=O)[C@](C)(O)[C@H]1[C@H](O)C[C@@]2(C)[C@@H]3CC=C4[C@@H](C=C(O)C(=O)C4(C)C)[C@]3(C)C(=O)C[C@]12C` [NSC 106399]: the “Pearson's Correlation Coeff” value on ABCB1 came out at 0.1871. The Correlation on ABCD4 is −0.4232.
For the molecule `N[C@H](C(=O)O)[C@@H]1CC(Cl)=NO1` [NSC 163501], the “Pearson's Correlation Coeff” value at ABCB1 amounted to 0.2122. Also, the Correlation at ABCD1 was −0.4301; at ABCF1, −0.5274.
On ABCG8, `C=C1[C@@H](C)[C@H]2[C@H](Cc3ccccc3)NC(=O)[C@]23[C@H](OC(C)=O)/C=C/[C@@](C)(O)C(=O)[C@@H](C)C/C=C/[C@H]3[C@@H]1O` [NSC 209835] registered a Correlation of −0.4443.
The molecule `CSCSCC(CO)NC(=O)/C=C\c1c(C)[nH]c(=O)[nH]c1=O` (centres unmarked) [NSC 251820] yielded a Correlation on ABCC4 of −0.4340.
`CS(=O)(=O)c1cc(=O)c2ccccc2s1` [NSC 622282] came in with a Correlation at ABCB3 of −0.4406.
On ABCA2, `O=C1c2cccc3cc([N+](=O)[O-])cc(c23)C(=O)N1Nc1ccc([N+](=O)[O-])cc1[N+](=O)[O-]` [NSC 679265] yielded a Correlation of −0.3298.
